The test system of data set [1] is Microsporum gypseum (Cmccfmza). Kind of data set: Antifungal evaluation, MIC (NCCLS broth dilution). Type of data set: cell-based. The note with it: Nannizzia gypsea, 4–7 days at 30 °C, range 1.25–640 μg/mL. The procedure: (§1) The three new polyketides 1–3 were evaluated for antifungal activity against Cryptococcus neoformans (ATCC 90113), Candida albicans (Y0109), Trichophyton rubrum (Cmccftla) and Microsporum gypseum (Cmccfmza) (Table 2), for in vitro cytotoxic activity against human cancer cell lines, HCT-116 (colon cancer), A549 (lung carcinoma), HeLa (cervical cancer), QGY-7703 (hepatocarcinoma), and MDA231 (breast adenocarcinoma) (Table 3), and protein tyrosine phosphatase 1B (PTP1B) inhibitory activity (Table 3). […] Cytotoxicity of compound 3 against A549, HeLa, QGY-7703, and MDA231 cell lines was weaker when compared to that of 1. […] The PTP1B inhibitors are recognized as potential therapeutic agents for the treatment of type II diabetes and obesity.
(§2) Antifungal IC50 values of woodylides A–C against C. neoformans were calculated as described by Ikhlas A. Khan et al.. Amphotericin B was used as the positive control. Minimal Inhibition Concentration (MIC) values of woodylides A–C were determined against three indicators (C. albicans, T. rubrum, and M. gypseum), following the […] (NCCLS) methods. Fluconazole was used as the positive control. Briefly, samples (dissolved in DMSO) were serially diluted in 20% DMSO/saline and transferred (10 µL) in duplicate to 96 well flat bottom microplates. Bacterial strains were grown aerobically at 30 °C in SDA for 16–20 h. A set of different concentrations of compounds 1–3 prepared in RPMI 1640 were next inoculated with the microorganisms and incubated 70–74 h for C. neoformans at 35 °C, 46 h for C. albicans at 35 °C, and 4–7 days for T. rubrum and M. gypseum at 30 °C. The IC50 values were calculated by using the fit model 201 of XLfit 4.2 software.

Data set [2] concerns Trichophyton rubrum (Cmccftla). The experiment in a line: Antifungal evaluation, MIC (NCCLS broth dilution). Conditions: 4–7 days at 30 °C, range 1.25–640 μg/mL, read-out: Antifungal Activity T. rubrum, MIC. In kind it is cell-based. The method, then:
as §1, §2

Data set [3] deals with Cryptococcus neoformans (ATCC 90113). Kind of data set: Antifungal evaluation, IC50 against C. neoformans. In kind it is cell-based. The note with it: RPMI 1640; for IC50: Cryptococcus neoformans, ATCC90113, incubated 70–74 h at 35 °C. The method, then: as §1
Optical rotations were determined with a Perkin-Elmer 341 polarimeter with 1 mm cell. IR spectra were recorded on a Bruker vector 22 spectrometer with KBr pellets. The NMR experiments were conducted on Bruker AVANCE-600 and Bruker AMX-500 instruments. HRESIMS and ESIMS were obtained on a Q-Tof micro YA019 mass spectrometer. In antifungal evaluation, IC50 values were calculated on XLfit 4.2 software (IDBS: Alameda, CA, USA, 2005). Reversed-phase HPLC was performed on YMC-Pack Pro C18 RS (5 μm) columns with a Waters 1525/2998 liquid chromatograph. Column chromatographies were carried out on silica gel 60 (200–300 mesh; Yantai, China), Sephadex LH-20 (Amersham Biosciences). TLC was carried out using HSGF 254 plates and visualized by spraying with anisaldehyde-H2SO4 reagent.
as §2

The target of data set [4] is T1, protein tyrosine phosphatase 1B (PTP1B) (Homo sapiens, UniProt P18031).
T1 construct: The enzymatic activities of the PTP1B catalytic domain were determined at 30 °C by monitoring the hydrolysis of pNPP
T1 sequence (P18031 3-277 limits assumed): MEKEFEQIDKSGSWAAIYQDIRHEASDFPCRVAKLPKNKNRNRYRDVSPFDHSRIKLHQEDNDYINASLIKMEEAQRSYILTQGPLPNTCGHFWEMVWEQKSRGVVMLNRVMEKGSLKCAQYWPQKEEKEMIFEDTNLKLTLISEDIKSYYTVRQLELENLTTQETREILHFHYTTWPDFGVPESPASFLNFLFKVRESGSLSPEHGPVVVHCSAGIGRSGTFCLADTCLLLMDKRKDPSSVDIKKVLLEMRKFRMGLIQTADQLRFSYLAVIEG
Kind of data set: PTP1B inhibitory assay (pNPP hydrolysis). In kind it is biochemical. The note with it: recombinant PTP1B catalytic domain, 30 °C, pH 6.5. The method, then:
The enzymatic activities of the PTP1B catalytic domain were determined at 30 °C by monitoring the hydrolysis of pNPP.

Data set [5] in a line: Cytotoxicity MTT assay. Type of data set: cell-based. Conditions: human, 48 h treatment, 1 to 100 μg/mL. The procedure:
(§3) Cytotoxicity of compound 3 against A549, HeLa, QGY-7703, and MDA231 cell lines was weaker when compared to that of 1. […] The PTP1B inhibitors are recognized as potential therapeutic agents for the treatment of type II diabetes and obesity. The cytotoxicity of compounds 1-3 against HCT-116, A549, HeLa, QGY-7703, and MDA231 cell lines was evaluated by the MTT assay as described in a previous report. Briefly, compounds were solubilized in DMSO with the working concentration of test substances ranging from 1 to 100 μg/mL. Cells at the exponential growth phase were harvested and seeded into 96-well plates. After incubation for 24 h, the cells were treated with various concentrations of test substances for 48 h and then incubated with 1 mg/mL MTT at 37 °C for 4 h, followed by dissolving in DMSO. The produced formazan was measured by the absorbance at 570 nm on a microplate reader. The IC50 values were calculated on the basis of percentage inhibition using the linear regression method.

The next data set concerns HeLa (cervical cancer). Kind of data set: Cytotoxicity MTT assay. In kind it is cell-based, human. Conditions: 48 h treatment, 1 to 100 μg/mL. The method, then: as §3
The nature of data set [6]: Cytotoxicity MTT assay. Type of data set: cell-based, human. Conditions: human, HeLa cells (cervical cancer), 48 h treatment, 1 to 100 μg/mL. The method, then:
as §3

Another data set relates to Candida albicans (Y0109). Kind of data set: Antifungal evaluation, MIC (NCCLS broth dilution). Conditions: 46 h at 35 °C, range 1.25–640 μg/mL. In kind it is cell-based. The method, then:
as §1, §2

Values after ≈ are worked out from the molar mass of the structure shown.

Consider `OC(Cn1cncn1)(Cn1cncn1)c1ccc(F)cc1F` [Fluconazole, reference compound], for which the MIC in data set [1] is 8 µg/mL (≈ 26.1 µM); in data set [2] it was 2 µg/mL (≈ 6.53 µM).
As to `CCCCC(CC)CC(O)(/C=C(/CC)[C@@H](O)CC(=O)OC)CC` (some centres unmarked) [Compound 2, Woodylide B], the “Antifungal Activity C. neoformans, IC50” value in data set [3] (incubated 70–74 h at 35 °C) was “inactive”.
For the molecule `CCCCC(C)CC(O)(C=C(CC)C(O)CC(=O)O)CC` (centres unmarked) [Compound 3, Woodylide C], the IC50 in data set [4] is 15.6 µM; in data set [3], 10.8 µg/mL (≈ 36.1 µM). The minimal inhibitory concentration (MIC) in data set [1] and in data set [2] was 32 µg/mL (≈ 107 µM) each time. In “Cytotoxicity MTT assay [5]” (HCT-116 cells (colon cancer)), this molecule registered an IC50 at 48 h of 9.4 µg/mL (≈ 31.3 µM).
In turn, `C[C@@H]1[C@H](O)[C@@H](C)/C=C/C=C/C=C/C=C/C=C/C=C/C=C/[C@H](O[C@@H]2O[C@H](C)[C@@H](O)[C@H](N)[C@@H]2O)C[C@@H]2O[C@](O)(C[C@@H](O)C[C@@H](O)[C@H](O)CC[C@@H](O)C[C@@H](O)CC(=O)O[C@H]1C)C[C@H](O)[C@H]2C(=O)O` [Amphotericin B, reference compound] came in with an IC50 in data set [3] of 0.35 µg/mL (≈ 0.379 µM).
For `CCCCC(C)CC(O)(/C=C(/CC)[C@@H](O)CC(=O)OC)CC` (some centres unmarked) [Compound 1, Woodylide A], the “Cytotoxicity IC50 HeLa” value with HeLa (cervical cancer) was 11.22 µg/mL. The IC50 at 48 h in the data set “Cytotoxicity MTT assay [6]” was found to be 11.2 µg/mL (≈ 35.6 µM); in the data set “Cytotoxicity MTT assay [5]” (A549 cells (lung carcinoma)) it was 37.8 µg/mL (≈ 120 µM); in the data set “Cytotoxicity MTT assay [5]” (QGY-7703 cells (hepatocarcinoma)), 25.8 µg/mL (≈ 82 µM). For the same molecule, 3.67 µg/mL (≈ 11.7 µM) corresponded to half-maximal inhibition in data set [3] (IC50). Moreover, the MIC (in data set [1]; in data set [2]; in the data set on Candida albicans (Y0109)) was 32 µg/mL (≈ 102 µM) in each case.

Values taken from article PMC3397464, “Woodylides A–C, New Cytotoxic Linear Polyketides from the South China Sea Sponge Plakortis simplex” (Marine Drugs, 2012).
